For experiment [1], the target named is catalytic domain of human Bub1 (amino acids 704-1085) (Homo sapiens (Human), UniProt O43683). Kind of experiment: Bub1 kinase assay (TR-FRET). Format: biochemical. To be noted: 10 μM ATP, 1 μM peptide substrate; read-out: Biological Assay 1: Bub1 kinase assay median IC50. A digest of the protocol: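 Phosphoserine product detected by TR-FRET (Eu-labeled anti-mouse IgG/anti-phosphoserine antibody to streptavidin-XL665) after 1 h at 22 °C. IC50 from 4-parameter logistic fit.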
Sequence of catalytic domain of human Bub1 (amino acids 704-1085) (O43683 704-1085): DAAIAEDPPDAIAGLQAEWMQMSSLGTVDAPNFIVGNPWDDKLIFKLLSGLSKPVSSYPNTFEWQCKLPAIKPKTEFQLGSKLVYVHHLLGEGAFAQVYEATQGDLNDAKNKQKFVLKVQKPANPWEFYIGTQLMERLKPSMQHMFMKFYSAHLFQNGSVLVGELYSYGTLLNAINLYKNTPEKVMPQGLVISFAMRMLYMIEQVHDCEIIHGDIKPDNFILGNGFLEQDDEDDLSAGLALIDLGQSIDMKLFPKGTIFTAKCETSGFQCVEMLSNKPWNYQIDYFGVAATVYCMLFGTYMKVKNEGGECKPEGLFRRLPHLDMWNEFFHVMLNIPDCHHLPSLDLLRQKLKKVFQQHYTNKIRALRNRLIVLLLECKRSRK
On the technique in general: TR-FRET usually uses a lanthanide donor and a delayed reading to cut background.

For experiment [2], the system named is HeLa cells. Put plainly: Proliferation assay (HeLa cell line). Format: cell-based. To be noted: 4 days, crystal violet, read-out: Biological Assay 2: Proliferation assay (HeLa cell line) median IC50.
Experiment [3] deals with HeLa-MaTu-ADR cells. Kind of experiment: Proliferation assay (HeLa-MaTu-ADR cell line). Format: cell-based. To be noted: HeLa-MaTu-ADR, 4 days, crystal violet, read-out: Biological Assay 2: Proliferation assay (HeLa-MaTu-ADR cell line) median IC50. The protocol: (§1) Cultivated tumor cells (cells were ordered from ATCC, except HeLa-MaTu and HeLa-MaTu-ADR, which were ordered from EPO-GmbH, Berlin) were plated at a density of 1000 to 5000 cells/well, depending on the growth rate of the respective cell line, in a 96-well multititer plate in 200 μL of their respective growth medium supplemented 10% fetal calf serum. After 24 hours, the cells of one plate (zero-point plate) were stained with crystal violet (see below), while the medium of the other plates was replaced by fresh culture medium (200 μl), to which the test substances were added in various concentrations (0 μM, as well as in the range of 0.001-10 μM; the final concentration of the solvent dimethyl sulfoxide was 0.5%). The cells were incubated for 4 days in the presence of test substances. Cell proliferation was determined by staining the cells with crystal violet: the cells were fixed by adding 20 μl/measuring point of an 11% glutaric aldehyde solution for 15 minutes at room temperature. After three washing cycles of the fixed cells with water, the plates were dried at room temperature. The cells were stained by adding 100 μl/measuring point of a 0.1% crystal violet solution (pH 3.0). After three washing cycles of the stained cells with water, the plates were dried at room temperature. The dye was dissolved by adding 100 μl/measuring point of a 10% acetic acid solution. […] The change of cell number, in percent, was calculated by normalization of the measured values to the aborbtion values of the zero-point plate (=0%) and the absorbtion of the untreated (0 μm) cells (=100%). The IC50 values were determined by means of a 4 parameter fit using the company's own software.

Experiment [4] concerns MCF7 cells. Put plainly: Proliferation assay (MCF7 cell line). The format is cell-based. To be noted: Homo sapiens, 96 h; MCF7, 4 days, crystal violet; read-out: Biological Assay 2: Proliferation assay (MCF7 cell line) median IC50. Here is the method:
Cultivated tumor cells (cells were ordered from ATCC, except HeLa-MaTu and HeLa-MaTu-ADR, which were ordered from EPO-GmbH, Berlin) were plated at a density of 1000 to 5000 cells/well, depending on the growth rate of the respective cell line, in a 96-well multititer plate in 200 μL of their respective growth medium supplemented 10% fetal calf serum. After 24 hours, the cells of one plate (zero-point plate) were stained with crystal violet (see below), while the medium of the other plates was replaced by fresh culture medium (200 μl), to which the test substances were added in various concentrations (0 μM, as well as in the range of 0.001-10 μM; the final concentration of the solvent dimethyl sulfoxide was 0.5%). The cells were incubated for 4 days in the presence of test substances. Cell proliferation was determined by staining the cells with crystal violet: the cells were fixed by adding 20 μl/measuring point of an 11% glutaric aldehyde solution for 15 minutes at room temperature. […] Absorbtion was determined by photometry at a wavelength of 595 nm. The change of cell number, in percent, was calculated by normalization of the measured values to the aborbtion values of the zero-point plate (=0%) and the absorbtion of the untreated (0 μm) cells (=100%). The IC50 values were determined by means of a 4 parameter fit using the company's own software.

The subject of experiment [5] is NCI-H460 cells. Put plainly: Proliferation assay (H460 cell line). The format is cell-based. To be noted: H460, 4 days, crystal violet, read-out: Biological Assay 2: Proliferation assay (H460 cell line) median IC50. The protocol:
as §1

The subject of experiment [6] is DU145 cells. Kind of experiment: Proliferation assay (DU145 cell line). The format is cell-based. To be noted: DU145, 4 days, crystal violet, read-out: Biological Assay 2: Proliferation assay (DU145 cell line) median IC50. The protocol:
as §1

Experiment [7] deals with Caco2 cells. Kind of experiment: Proliferation assay (Caco2 cell line). The format is cell-based. To be noted: Caco2, 4 days, crystal violet, read-out: Biological Assay 2: Proliferation assay (Caco2 cell line) median IC50. Here is the method:
as §1

The subject of experiment [8] is B16F10 cells. Kind of experiment: Proliferation assay (B16F10 cell line). Format: cell-based. To be noted: B16F10, 4 days, crystal violet, read-out: Biological Assay 2: Proliferation assay (B16F10 cell line) median IC50. The protocol:
as §1

Where a name gives a salt, the structure may show the parent alone. Read-outs that look alike come from different tables or passages of the source.

In the case of `CCOc1cc(F)c(Cn2nc(-c3ncc(OC)c(Nc4ccncc4)n3)c3ccccc32)c(F)c1` [Example 2-5-1, 2-[1-(4-ethoxy-2,6-difluorobenzyl)-1H-indazol-3-yl]-5-methoxy-N-(pyridin-4-yl)pyrimidin-4-amine], the IC50 in experiment [1] amounted to 0.0046 µM; in experiment [2] it was 2.1 µM; in experiment [3] (96 h), 1.2 µM; in experiment [4] it was 3.1 µM; in experiment [5] (Homo sapiens, NCI-H460, 96 h) it was 1.4 µM; in experiment [6] (Homo sapiens, DU-145, 96 h), 1.7 µM. Also, the IC50 amounted to 1.2 µM in experiment [7] (Homo sapiens, Caco-2, 96 h) and 1.1 µM in experiment [8] (Mus musculus, B16-F10, 96 h).

Take `COC(=O)c1ccc(Cl)c(Cn2nc(-c3ncc(OC)c(Nc4ccncc4)n3)c3ccccc32)c1Cl` [Example 2-16-1, methyl 2,4-dichloro-3-({3-[5-methoxy-4-(pyridin-4-ylamino)pyrimidin-2-yl]-1H-indazol-1-yl}methyl)benzoate]: the IC50 in experiment [1] stood at 0.0084 µM; in experiment [2] (Homo sapiens, 96 h), 1.6 µM; in experiment [3] (96 h), 1.2 µM; in experiment [4], 2 µM; in experiment [5] (Homo sapiens, NCI-H460, 96 h), 2.9 µM; in experiment [6] (Homo sapiens, DU-145, 96 h), 2 µM. The IC50 in experiment [7] (Homo sapiens, Caco-2, 96 h) turned out to be 2.6 µM; in experiment [8] (Mus musculus, B16-F10, 96 h), 0.99 µM.

`CCOc1cc(F)c(Cn2nc(-c3ncc(OC)c(Nc4ccncc4)n3)c3ccccc32)c(F)c1` [Example 15-1, 2-[1-(4-ethoxy-2,6-difluorobenzyl)-1H-indazol-3-yl]-5-methoxy-N-(pyridin-4-yl)pyrimidin-4-amine hydrochloride (1:1)]: the IC50 in experiment [1] is 0.0052 µM; in experiment [2] (Homo sapiens, 96 h) it was 1.4 µM; in experiment [3], 1.2 µM; in experiment [5], 2.2 µM; in experiment [6], 1.2 µM; in experiment [7], 1.2 µM. Also, in experiment [8], the IC50 amounted to 0.76 µM.

Regarding `CNC(=O)c1ccc(Cl)c(Cn2nc(-c3ncc(OC)c(Nc4ccncc4)n3)c3ccccc32)c1Cl` [Example 20-1, 2,4-dichloro-3-({3-[5-methoxy-4-(pyridin-4-ylamino)pyrimidin-2-yl]-1H-indazol-1-yl}methyl)-N-methylbenzamide], the IC50 in experiment [1] was 0.2 µM; in experiment [2] (Homo sapiens, 96 h), 0.19 µM; in experiment [3] (96 h), 3 µM; in experiment [5] (Homo sapiens, NCI-H460, 96 h), 3 µM; in experiment [6] (Homo sapiens, DU-145, 96 h) it was 3 µM; in experiment [7] (Homo sapiens, Caco-2, 96 h), 3 µM. For the same compound, the IC50 in experiment [8] (Mus musculus, B16-F10, 96 h) was 2.4 µM.

For `CCOc1cc(F)c(Cn2nc(-c3ncc(OCC4CNCCO4)c(Nc4ccncc4)n3)c3ccccc32)c(F)c1` (centres unmarked) [Example 38-2], the IC50 in experiment [1] was 0.0034 µM; in experiment [2] it was 1.2 µM; in experiment [3] it was 1.1 µM; in experiment [5], 1.1 µM; in experiment [6] it was 1.3 µM; in experiment [7], 0.6 µM. The IC50 in experiment [8] was found to be 0.6 µM.

In the case of `COc1cnc(-c2nn(Cc3c(Cl)ccc(NC(C)=O)c3Cl)c3ccccc23)nc1Nc1ccncc1` [Example 41-1, N-[2,4-dichloro-3-({3-[5-methoxy-4-(pyridin-4-ylamino)pyrimidin-2-yl]-1H-indazol-1-yl}methyl)phenyl]acetamide], the IC50 in experiment [1] turned out to be 0.019 µM; in experiment [2] (Homo sapiens, 96 h), 6 µM; in experiment [3] (96 h), 10 µM; in experiment [5] (Homo sapiens, NCI-H460, 96 h) it was 10 µM; in experiment [6] (Homo sapiens, DU-145, 96 h) it was 10 µM; in experiment [7] (Homo sapiens, Caco-2, 96 h), 3.3 µM. In addition, the IC50 in experiment [8] (Mus musculus, B16-F10, 96 h) was determined as 1.8 µM.

Values taken from US10266548B2, “Substituted benzylindazoles for use as Bub1 kinase inhibitors in the treatment of hyperproliferative diseases” (Bayer Intellectual Property GmbH, priority 2011, dated 2019).
